In patent publication US9249102B2 (priority 2012, dated 2016):
Where two headings read alike, the source gives them in different places.

Tests used:
[1] = test system: microfilaria of Dirofilaria immitis; assay: Method F: microfilaria of Dirofilaria immitis, survival at 24 hours
Haemonchus contortus = assay: Method A: Haemonchus contortus L1 larvae, microtitre plate screen; details: 96 h, read-out: motility inhibition
[2] = survival of microfilaria at 24 hours

SMILES	EC50 [1, 2] [µg/mL]	inhibition at 5 µg/mL (Haemonchus contortus) [%]	other results
O=C(NCCOc1ccc(Nc2ccc([N+](=O)[O-])c(C(F)(F)F)c2)cc1)C(=O)NCc1cc2cc(C(F)(F)F)ccc2o1 [Compound 231]	< 5	–	–
O=C(NCCOc1ccc(Nc2ccc([N+](=O)[O-])c(C(F)(F)F)c2)cc1)C(=O)NCc1cc2cc(Cl)ccc2o1 [Compound 230, N^1-((5-chlorobenzofuran-2-yl)methyl)-N^2-(2-(4-(4-nitro-3-(trifluoromethyl)phenylamino)phenoxy)ethyl)oxalamide]	< 5	–	–
O=C(CO[C@H]1CC[C@H](Nc2ccc([N+](=O)[O-])c(C(F)(F)F)c2)CC1)N1CCN(c2cccc3ccccc23)CC1 [Compound 20, 1-[4-(naphthalen-1-yl)piperazin-1-yl]-2-[(4-[[4-nitro-3-(trifluoromethyl)phenyl]amino]cyclohexyl)oxy]ethan-1-one]	< 1	–	–
N#Cc1ccc(NC2CCN(C(=O)CCCN3CCN(c4ccc5ccccc5n4)CC3)CC2)cc1C(F)(F)F [Compound 94, 4-[(1-[4-[4-(quinolin-2-yl)piperazin-1-yl]butanoyl]piperidin-4-yl)amino]-2-(trifluoromethyl)benzonitrile]	< 5	–	–
O=C(CO[C@H]1CC[C@H](Nc2ccc([N+](=O)[O-])c(C(F)(F)F)c2)CC1)N1CCN(c2ccnc3ccccc23)CC1 [Compound 160, 2-[(4-[[4-nitro-3-(trifluoromethyl)phenyl]amino]cyclohexyl)oxy]-1-[4-(quinolin-4-yl)piperazin-1-yl]ethan-1-one]	< 5	–	–
O=C(CO[C@H]1CC[C@H](Nc2ccc([N+](=O)[O-])c(C(F)(F)F)c2)CC1)N1CCc2cc(F)ccc2C1 [Compound 193, 1-(6-fluoro-1,2,3,4-tetrahydroisoquinolin-2-yl)-2-[[4-[[4-nitro-3-(trifluoromethyl)phenyl]amino]cyclohexyl]oxy]ethan-1-one]	< 1	–	–
O=C(CO[C@H]1CC[C@H](Nc2ccc([N+](=O)[O-])c(C(F)(F)F)c2)CC1)N1CCc2cc(Cl)ccc2C1 [Compound 195, 1-(6-chloro-1,2,3,4-tetrahydroisoquinolin-2-yl)-2-[[4-[[4-nitro-3-(trifluoromethyl)phenyl]amino]cyclohexyl]oxy]ethan-1-one]	–	–	EC50 [1]: < 1 µg/mL
CN(C(=O)C(=O)NCCO[C@H]1CC[C@H](Nc2ccc([N+](=O)[O-])c(C(F)(F)F)c2)CC1)c1ccc2cc(F)ccc2n1 [Compound 242]	< 1	–	–
O=C(COc1ccc2ccc([N+](=O)[O-])c(C(F)(F)F)c2c1)N1CCN(c2ccc(Cl)cn2)CC1 [Compound 114, 1-[4-(5-chloropyridin-2-yl)piperazin-1-yl]-2-[[7-nitro-8-(trifluoromethyl)naphthalen-2-yl]oxy]ethan-1-one]	< 5	–	–
O=C(CO[C@H]1CC[C@H](Nc2ccc([N+](=O)[O-])c(C(F)(F)F)c2)CC1)N1CCN(c2ccc(Cl)c3ccccc23)CC1 [Compound 161, 1-[4-(4-chloronaphthalen-1-yl)piperazin-1-yl]-2-[(4-[[4-nitro-3-(trifluoromethyl)phenyl]amino]cyclohe-xyl)oxy]ethan-1-one]	< 5	–	–
O=C(NCCOc1ccc(Nc2ccc([N+](=O)[O-])c(C(F)(F)F)c2)cc1)C(=O)NCc1cc2cc(F)ccc2o1 [Compound 229, N^1-((5-fluorobenzofuran-2-yl)methyl)-N^2-(2-(4-(4-nitro-3-(trifluoromethyl)phenylamino)phenoxy)ethyl)oxalamide]	< 1	–	–
O=C(CO[C@H]1CC[C@H](Nc2ccc([N+](=O)[O-])c(C(F)(F)F)c2)CC1)Nc1ccc2cc(C(F)(F)F)ccc2n1 [Compound 210, 2-[[4-[[4-nitro-3-(trifluoromethyl)phenyl]amino]cyclohexyl]oxy]-N-[6-(trifluoromethyl)quino-lin-2-yl]acetamide]	< 1	–	–
CC(CN1CCN(c2cccc3ccccc23)CC1)C(=O)N1CCC(Nc2ccc([N+](=O)[O-])c(C(F)(F)F)c2)CC1 (stereo not drawn) [Compound 19, 2-methyl-3-(4-naphthalen-1-yl-piperazin-1-yl)-1-[4-(4-nitro-3-trifluoromethyl-phenylamino)-piperidin-1-yl]-propan-1-one]	< 1	–	–
O=C(CO[C@H]1CC[C@H](Nc2ccc(S(=O)(=O)C(F)(F)F)cc2)CC1)N1CCN(c2nc3cc(C(F)(F)F)ccc3s2)CC1 [Compound 364, 2-[4-(4-trifluoromethanesulfonyl-phenylamino)-cyclohexyloxy]-1-[4-(5-trifluoromethyl-benzothiazol-2-yl)-piperazin-1-yl]-ethanone]	–	≥ 90	–
O=C(CO[C@H]1CC[C@H](Nc2ccc([N+](=O)[O-])c(C(F)(F)F)c2)CC1)N1CCN(CCc2cc3cc(C(F)(F)F)ccc3o2)CC1 [Compound 324, 2-[4-[4-nitro-3-(trifluoromethyl)anilino]cyclohexoxy]-1-[4-[2-[5-(trifluoromethyl)benzofuran-2-yl]ethyl]piperazin-1-yl]ethanone]	–	≥ 90	–
O=[N+]([O-])c1ccc(N[C@H]2CC[C@H](OCC(=S)N3CCN(c4ccc5cc(F)ccc5n4)CC3)CC2)cc1C(F)(F)F [Compound 264, 1-[4-(6-fluoro-quinolin-2-yl)-piperazin-1-yl]-2-[4-(4-nitro-3-trifluoro-methyl-phenylamino)-cyclohexyloxy]-ethanethione]	–	≥ 90	–
O=C(NCCO[C@H]1CC[C@H](Nc2ccc([N+](=O)[O-])c(C(F)(F)F)c2)CC1)C(=O)Nc1ccc2cc(C(F)(F)F)ccc2n1 [Compound 240, N^1-(2-(-4-(4-nitro-3-(trifluoromethyl)phenylamino)cyclohexyloxy)ethyl)-N^2-(6-(trifluoromethyl)quinolin-2-yl)oxalamide]	–	≥ 90	–
N#Cc1ccc(N[C@H]2CC[C@H](OCC(=O)N3CCN(Cc4nc5cc(Cl)ccc5o4)CC3)CC2)cc1C(F)(F)F [Compound 288, 2-[(4-[[4-cyano-3-(trifluoromethyl)phenyl]amino]cyclohexyl)-oxy]1-[4-(5-chlorobenzoxazol-2-ylmethyl)piperazin-1-yl]ethan-1-one]	–	≥ 90	–
CC(Cc1cc2cc(C(F)(F)F)ccc2o1)N1CCN(C(=O)CO[C@H]2CC[C@H](Nc3ccc([N+](=O)[O-])c(C(F)(F)F)c3)CC2)CC1 (stereo partly drawn) [Compound 330, 1-[4-[1-methyl-2-[5-(trifluoromethyl)benzofuran-2-yl]ethyl]piperazin-1-yl]-2-[4-[4-nitro-3-(trifluoromethyl)anilino]cyclohexoxy]ethanone]	–	≥ 90	–
O=C(NCCO[C@H]1CC[C@H](Nc2ccc([N+](=O)[O-])c(C(F)(F)F)c2)CC1)C(=O)Nc1ccc2cc(Cl)ccc2c1 [Compound 174]	–	≥ 90	–
O=C(CO[C@H]1CC[C@H](Nc2ccc([N+](=O)[O-])c(C(F)(F)F)c2)CC1)N1CCN(Cc2cc3cc(Cl)cc(Br)c3o2)CC1 [Compound 321, 2-[(4-[[4-nitro-3-(trifluoromethyl)phenyl]amino]cyclohexyl)-oxy]1-[4-(5-chloro-7-bromobenzofuran-2-ylmethyl)piperazin-1-yl]ethan-1-one]	–	≥ 90	–
N#Cc1ccc(N[C@H]2CC[C@H](OCC(=O)N3CCN(c4nc5cc(C(F)(F)F)ccc5s4)CC3)CC2)cc1C(F)(F)F [Compound 358, 4-(4-{2-oxo-2-[4-(5-trifluoromethyl-benzothiazol-2-yl)-piperazin-1-yl]-ethoxy}-cyclohexylamino)-2-trifluoromethyl-benzonitrile]	–	≥ 90	–
O=C(CO[C@H]1CC[C@H](Nc2ccc([N+](=O)[O-])c(C(F)(F)F)c2)CC1)N1CCN(Cc2cc3cc(Cl)cc(Cl)c3o2)CC1 [Compound 319, 2-[(4-[[4-nitro-3-(trifluoromethyl)phenyl]amino]cyclohexyl)-oxy]1-[4-(5,7-dichlorobenzofuran-2-ylmethyl)piperazin-1-yl]ethan-1-one]	–	≥ 90	–
O=C(NCCO[C@H]1CC[C@H](Nc2ccc([N+](=O)[O-])c(C(F)(F)F)c2)CC1)C(=O)Nc1ccc2ccccc2c1 [Compound 75, N-(naphthalen-2-yl)-N-[2-[(4-[[4-nitro-3-(trifluoromethyl)phenyl]amino]cyclohexyl)oxy]ethyl]ethanediamide]	–	≥ 90	–
O=C(CO[C@H]1CC[C@H](Nc2ccc([N+](=O)[O-])c(C(F)(F)F)c2)CC1)N1CCN(c2ccc3cc(Br)ccc3c2F)CC1 [Compound 267, 1-[4-(6-bromo-1-fluoro-naphthalen-2-yl)-piperazin-1-yl]-2-[4-(4-nitro-3-trifluoromethyl-phenylamino)-cyclohexyloxy]-ethanone]	–	≥ 90	–
CN(c1ccc(C#N)c(C(F)(F)F)c1)[C@H]1CC[C@H](OCC(=O)N2CCN(c3ccc4cc(F)ccc4c3)CC2)CC1 [Compound 293, 4-[(4-{2-[4-(6-fluoro-naphthalen-2-yl)-piperazin-1-yl]-2-oxo-ethoxy}-cyclohexyl)-methyl-amino]-2-trifluoromethyl-benzonitrile]	–	≥ 90	–
CC(CN1CCN(c2ccc3ccccc3n2)CC1)C(=O)N1CCC(Nc2ccc([N+](=O)[O-])c(C(F)(F)F)c2)CC1 (stereo not drawn) [Compound 91, 2-methyl-1-(4-[[4-nitro-3-(trifluoromethyl)phenyl]amino]piperidin-1-yl)-3-[4-(quinolin-2-yl)piperazin-1-yl]propan-1-one]	–	≥ 90	–
N#Cc1ccc(N[C@H]2CC[C@H](OCC(=O)N3CCN(Cc4oc5ccc(F)cc5c4Cl)CC3)CC2)cc1C(F)(F)F [Compound 313, 4-(4-{2-[4-(3-chloro-5-fluoro-benzofuran-2-ylmethyl)-piperazin-1-yl]-2-oxo-ethoxy}-cyclohexylamino)-2-trifluoromethyl-benzonitrile]	–	≥ 90	–
O=C(COc1ccc(Nc2ccc([N+](=O)[O-])c(C(F)(F)F)c2)cc1)N1CCN(C(=O)c2cc3cc(C(F)(F)F)ccc3o2)CC1 [Compound 191, 2-(4-[[4-nitro-3-(trifluoromethyl)phenyl]amino]phenoxy)-1-(4-[[5-(trifluoromethyl)-1-benzofuran-2-yl]carbonyl]piperazin-1-yl)ethan-1-one]	–	≥ 90	–
O=C(NCCO[C@H]1CC[C@H](Nc2ccc([N+](=O)[O-])c(C(F)(F)F)c2)CC1)C(=O)Nc1ccc2cc(Cl)ccc2n1 [Compound 241, N^1-(6-chloroquinolin-2-yl)-N^2-(2-(-4-(4-nitro-3-(trifluoromethyl)phenylamino)cyclohexyloxy)ethyl)oxalamide]	–	≥ 90	–
